# Measured values: BindingDB's records for doi:10.1021/cb300426u (University of St. Andrews, 2013)
# Biological target: Glucose-1-phosphate thymidylyltransferase (Pseudomonas aeruginosa (strain ATCC 15692 / DSM 22644 / CIP 104116 / JCM 14847 / LMG 12228 / 1C / PRS 101 / PAO1), UniProt Q9HU22)
# Assay: Inhibition Assay
# Text: Inhibition assay using glucose-1-phosphate thymidylyltransferase (RmlA).
# Glucose-1-phosphate thymidylyltransferase, sequence (Q9HU22 whole entry): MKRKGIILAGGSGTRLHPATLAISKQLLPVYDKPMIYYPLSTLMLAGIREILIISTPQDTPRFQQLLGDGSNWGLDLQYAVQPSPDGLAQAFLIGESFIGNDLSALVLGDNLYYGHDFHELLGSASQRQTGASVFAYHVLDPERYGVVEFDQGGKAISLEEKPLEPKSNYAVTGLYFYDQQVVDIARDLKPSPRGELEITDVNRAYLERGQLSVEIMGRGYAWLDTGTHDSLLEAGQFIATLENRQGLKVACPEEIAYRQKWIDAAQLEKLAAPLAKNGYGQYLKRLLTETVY
row,SMILES,IC50
1,"CN(C(=O)c1ccccc1)c1c(N)n(Cc2ccccc2)c(=O)[nH]c1=O [Analogue of 1a, 8f]",> 60000 nM
2,"CCN(c1c(N)n(Cc2ccccc2)c(=O)[nH]c1=O)S(=O)(=O)c1ccccc1 [Analogue of 1a, 8b]",102 nM
3,"CN(c1c(N)n(Cc2ccccc2)c(=O)[nH]c1=O)S(=O)(=O)c1ccco1 [Analogue of 1a, 8t]",105 nM
4,"CNc1c(N)n(Cc2ccccc2)c(=O)[nH]c1=O [6-azanyl-5-(methylamino)-1-(phenylmethyl)pyrimidine-2,4-dione]",> 60000 nM
5,"Nc1c(O)n(Cc2ccccc2)c(=O)[nH]c1=O [Analogue of 1a, 2]",1140 nM
6,"CCCN(c1c(N)n(Cc2ccccc2)c(=O)[nH]c1=O)S(=O)(=O)c1ccccc1 [Analogue of 1a, 8c]",> 10000 nM
7,"CCCCn1c(N)c(N(C)C(=O)c2ccco2)c(=O)[nH]c1=O [Analogue of 1a, 5]",5900 nM
8,"Nc1c(NS(=O)(=O)c2ccccc2)c(=O)[nH]c(=O)n1Cc1ccccc1 [Analogue of 1a, 15a]",1320 nM
9,"CN(c1c(N)n(Cc2ccccc2)c(=O)[nH]c1=O)S(=O)(=O)c1ccccc1 [Analogue of 1a, 8a]",73 nM
10,"CCCCn1c(N)c(N(C)S(=O)(=O)c2ccccc2)c(=O)[nH]c1=O [Analogue of 1a, 1]",210 nM
